Data from patent US4010258A, “Microbial amylase inhibitor and preparation thereof with the use of streptomyces diasticus var. amylostaticus” (Ajinomoto Co., Inc., priority 1974, dated 1977).

How the values were obtained:
amylase = details: prior art statement; cited from earlier work
trypsin = assay: Action of various proteases on Amylostatin-A; format: in vitro ADME
papain = target: T1, papain (Carica papaya, UniProt P00784); assay: Action of various proteases on Amylostatin-A; format: in vitro ADME
T1 sequence (P00784 134-345): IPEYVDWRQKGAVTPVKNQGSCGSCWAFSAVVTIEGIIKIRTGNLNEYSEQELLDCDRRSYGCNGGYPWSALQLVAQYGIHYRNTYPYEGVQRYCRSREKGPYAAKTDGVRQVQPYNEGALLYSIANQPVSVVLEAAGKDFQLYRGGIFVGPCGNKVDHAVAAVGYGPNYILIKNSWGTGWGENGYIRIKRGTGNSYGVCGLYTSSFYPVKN

[1] = test system: bacterial α-amylase (crystalline); assay: Assay of amylase inhibitory activity (units); format: biochemical; details: purified powdery preparation, Example 1
Protocol: The reaction mixture consisting of 4 ml of a 1.5% soluble starch solution in 0.1M acetate buffer solution at pH 5.5, 0.5 ml of distilled water and 0.5 ml of the amylase solution to be assayed (amylase or bacterial α-amylase (crystalline) ) is incubated at 37° C. for 10 minutes and the reaction is terminated by adding a mixture of 5:1 by volume of 0.5N acetic acid and 0.5N hydrochloric acid. From this solution, 0.2 ml is withdrawn and added to 5 ml of N/3000 iodine solution and the absorbency is measured at 660 nm. The amylase activity per one ml of the enzyme solution expressed in units is calculated as follows: [formula] in which D is the optical density of the enzyme solution and Do is the optical density of the control.
The reaction mixture consisting of 0.5 ml of 2 × 10^^-4 % of bacterial α-amylase (crystalline) and 0.5 ml of the solution of Amylostatin-A is incubated at 37° C. for 10 minutes. Any residual amylase activity is determined according to the method of assay of amylase activity described above. One unit of amylase inhibitory activity is defined as the amount of inhibitory activity necessary to inactivate one unit of amylase.

[2] = test system: digestion and absorption of starch; assay: Biological test on digestibility of starch; format: in vivo, male rats of Wistar strain; details: rats, 4 hours
Protocol: An experiment concerning the inhibitory effect of Amylostatin-A on the digestion and absorption of starch in vivo was carried out using sound male rats of Wistar strain weighing from 250 to 300g. After they had been made to fast, receiving only water for 48 hours, 60 rats were selected and divided into 10 groups of each 5 or 10 as shown in Table 4.
Rats in control groups were given either 2.5 ml of an isotonic sodium chloride solution in which 300 mg of soluble starch (Wako Junyaku Co., Inc.) was dissolved or 2.5 ml of an isotonic sodium chloride solution in which 300 mg of corn starch (Japanese Pharmacopia) was suspended. The rats were subjected to a laparotomy, the solution was injected into the stomach and the incision site was sutured. Rats in test groups were given the same amount and kinds of solutions as given to the rats in control groups except that varying amounts of crude Amylostatin-A obtained according to the methods of Example 1 were added as shown in Table 4. The test solutions were administered in the same manner as the control solutions.
After the lapse of definite periods of time, all rats were again laparotomized at the site of the original incision and all contents of the stomach and small intestines were removed by washing with an isotonic sodium chloride solution. To these washings containing residual starch, 25 ml of 1N hydrochloric acid was added. The mixture was heated to carry the hydrolytic reaction to completion and the quantity of reducing sugar formed was determined by Somogyi's method.

Solubility = format: physicochemical
pepsin = pepsin (Sus scrofa, UniProt P00791); assay: Action of various proteases on Amylostatin-A; format: in vitro ADME
Chain of pepsin (P00791 60-385): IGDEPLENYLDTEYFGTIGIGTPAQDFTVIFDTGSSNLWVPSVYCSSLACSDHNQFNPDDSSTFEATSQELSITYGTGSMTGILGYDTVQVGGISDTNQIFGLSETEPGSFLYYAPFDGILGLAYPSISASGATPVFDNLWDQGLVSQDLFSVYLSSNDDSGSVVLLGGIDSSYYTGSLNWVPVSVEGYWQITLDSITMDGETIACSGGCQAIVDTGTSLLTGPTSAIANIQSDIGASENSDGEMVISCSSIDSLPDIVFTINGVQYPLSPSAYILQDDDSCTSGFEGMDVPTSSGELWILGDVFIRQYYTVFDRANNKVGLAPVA

chymotrypsin = chymotrypsin (Bos taurus, UniProt P00766); assay: Action of various proteases on Amylostatin-A; format: in vitro ADME
[3] = Stability in buffer solution (pH and heat); format: physicochemical

OC[C@H]1NC(O)[C@H](O)[C@@H](O)[C@@H]1O (stereo partly shown) [Nojirimycin]
amylase inhibitory activities (amylase): extremely low

Amylostatin-A
inactivation of the inhibitory activity on amylase by protease (trypsin): unable to inactivate | inactivation of the inhibitory activity on amylase by protease (papain): unable to inactivate | amylase inhibitory activity [1]: 3.5 × 10^4 units per mg | residual % of starch (average) ([2]; 300 mg cornstarch into the stomach, 2.5 mg crude Amylostatin-A added): 82.5% | residual % of starch (average) ([2]; 300 mg cornstarch into the stomach, 5 mg crude Amylostatin-A added): 93.6% | residual % of starch (average) ([2]; 300 mg cornstarch into the stomach, 10 mg crude Amylostatin-A added): 92.5% | residual % of starch (average) ([2]; 300 mg soluble starch (dissolved on heating) into the stomach, 5 mg crude Amylostatin-A added): 63.8% | residual % of starch (average) ([2]; 300 mg soluble starch (dissolved on heating) into the stomach, 10 mg crude Amylostatin-A added): 65.7% | Solubility (Solubility; acetone): substantially insoluble | Solubility (Solubility; chloroform): substantially insoluble | Solubility (Solubility; ethanol): substantially insoluble | Solubility (Solubility; methanol): substantially insoluble | Solubility (Solubility; pyridine): soluble | Solubility (Solubility; water): soluble | inactivation of the inhibitory activity on amylase by protease (pepsin): unable to inactivate | inactivation of the inhibitory activity on amylase by protease (chymotrypsin): unable to inactivate | Stability ([3]; buffer solution, pH 1 to 12, 37° C. for 12 hours): substantial stability | Stability ([3]; heated at 100° C. for 30 minutes, pH 1 to 12): substantial stability
